Experimental data taken from the supplement of paper PMC10307832.

Tests used:
Experiment in all cases: relative viability (nuclei count vs DMSO), 5 days (fraction); higher = more cells survive
[1] = compound: COc1cccc2c1C(=O)c1c(O)c3c(c(O)c1C2=O)C[C@@](O)(C(=O)CO)C[C@@H]3O[C@H]1C[C@H](N)[C@H](O)[C@H](C)O1 [Doxorubicin] + COc1cc2c(Oc3ccc(NC(=O)C4(C(=O)Nc5ccc(F)cc5)CC4)cc3F)ccnc2cc1OCCCN1CCOCC1 [Foretinib] (partner 0.25 µM)
How it was run: (§1)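 One day after seeding in 1536-well plates, lung cancer cell lines were dosed by pin tool. Dosing was either single-drug or a fixed anchor-drug dose plus five library-drug doses (not always all listed) in √10 steps. After 5 days, nuclei were stained in one fix-and-stain step and counted on 4× images, and relative viability is the nuclei count of treated wells over that of vehicle wells, given as the median of duplicate plates.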

[2] = compound: COc1cccc2c1C(=O)c1c(O)c3c(c(O)c1C2=O)C[C@@](O)(C(=O)CO)C[C@@H]3O[C@H]1C[C@H](N)[C@H](O)[C@H](C)O1 [Doxorubicin] + N=C(N)NC(=N)NCCc1ccccc1 [Phenformin] (partner 250 µM)
How it was run: as §1

[3] = compound: COC1=C(C=C(C=C1)C2=CC3=NC=CN3C(=N2)NC4=C(C=CC=N4)C(=O)N)OC [BAY61-3606] + Cc1nc(Nc2ncc(C(=O)Nc3c(C)cccc3Cl)s2)cc(N2CCN(CCO)CC2)n1 [Dasatinib] (partner 0.075 µM)
How it was run: as §1

[4] = compound: COC1=C(C=C(C=C1)C2=CC3=NC=CN3C(=N2)NC4=C(C=CC=N4)C(=O)N)OC [BAY61-3606] + Cc1nc(NC(=O)N2CCC[C@H]2C(N)=O)sc1-c1ccnc(C(C)(C)C(F)(F)F)c1 [Alpelisib] (partner 2 µM)
How it was run: as §1

Cell Line	relative viability ([1]; first compound 0.001 µM)	relative viability ([1]; first compound 0.003162 µM)	relative viability ([1]; first compound 0.01 µM)	relative viability ([1]; first compound 0.03162 µM)	relative viability ([1]; first compound 0.1 µM)	relative viability ([2]; first compound 0.001 µM)	relative viability ([2]; first compound 0.003162 µM)	relative viability ([2]; first compound 0.01 µM)	relative viability ([2]; first compound 0.03162 µM)	relative viability ([2]; first compound 0.1 µM)	relative viability ([3]; first compound 0.02 µM)	relative viability ([3]; first compound 0.06325 µM)	relative viability ([3]; first compound 0.2 µM)	relative viability ([3]; first compound 0.6325 µM)	relative viability ([3]; first compound 2 µM)	relative viability ([4]; first compound 0.02 µM)	relative viability ([4]; first compound 0.06325 µM)	relative viability ([4]; first compound 0.2 µM)	relative viability ([4]; first compound 0.6325 µM)	relative viability ([4]; first compound 2 µM)
COR-L 105	1.02	0.943	0.9	0.62	0.7	0.57	0.533	0.434	0.295	0.286	0.325	0.332	0.339	0.333	0.203	0.942	0.988	0.76	1.02	0.788
EKVX	0.735	0.891	0.912	0.831	0.704	0.255	0.236	0.237	0.245	0.22	0.602	0.455	0.436	0.58	0.297	0.916	0.886	0.89	0.981	0.744
EMC-BAC-2	1.15	1.06	0.861	0.595	0.582	0.621	0.462	0.416	0.265	0.206	0.359	0.323	0.353	0.298	0.276	0.817	0.837	0.75	0.85	0.802
EPLC-272H	0.899	0.67	0.753	0.517	0.78	0.325	0.32	0.395	0.256	0.299	0.386	0.385	0.315	0.41	0.275	1.03	0.935	1	0.986	0.905
H3255	0.791	0.821	0.973	0.818	0.863	0.371	0.363	0.333	0.374	0.311	0.411	0.304	0.352	0.335	0.462	0.708	0.635	0.673	0.874	0.735
HARA	0.791	0.946	0.779	0.816	0.866	0.424	0.616	0.444	0.409	0.439	0.168	0.233	0.323	0.245	0.28	0.867	0.88	0.877	0.83	0.561
HCC-15		0.922	0.94	0.49	0.404		0.518	0.355	0.148	0.135	0.696	0.59	0.592	0.551	0.483	0.836	0.94	0.929	0.862	0.768
HCC-78	0.577	0.627	0.528	0.517	0.499	0.778	0.768	0.659	0.706	0.625	0.363	0.362	0.379	0.48	0.694	0.405	0.366	0.453	0.362	0.358
